Measurements published in ChEMBL document CHEMBL5143733, “Discovery of (E)-3-(3-((2-Cyano-4'-dimethylaminobiphenyl-4-ylmethyl)cyclohexanecarbonylamino)-5-fluorophenyl)acrylic Acid Methyl Ester, an Intestine-Specific, FXR Partial Agonist for the Treatment of Nonalcoholic Steatohepatitis” (J Med Chem, 2022).
Active and inactive are the calls of the source. The rule behind the calls is not given here.

What was measured:
[1] = target: Peroxisome proliferator-activated receptor delta (Homo sapiens, UniProt Q03181); assay: Agonist activity at human PPAR-delta expressed in CHO-K1 cells by PathHunter assay; format: cell-based
Mus musculus [2] = assay: Antifibrotic activity in CDAHFD-induced nonalcoholic steatohepatitis C57BL/6J mouse model assessed as reduction in COL1A1 gene expression at 80 mg/kg, po administered daily for 4 weeks; format: functional, organism-based
[3] = target: T1, Bile acid receptor (Mus musculus) (UniProt Q60641); assay: In vivo activation of FXR in CDAHFD-induced nonalcoholic steatohepatitis C57BL/6J mouse model assessed as induction of FGF15 gene expression at 80 mg/kg, po administered daily for 4 weeks; format: functional, organism-based
T1 sequence (whole entry): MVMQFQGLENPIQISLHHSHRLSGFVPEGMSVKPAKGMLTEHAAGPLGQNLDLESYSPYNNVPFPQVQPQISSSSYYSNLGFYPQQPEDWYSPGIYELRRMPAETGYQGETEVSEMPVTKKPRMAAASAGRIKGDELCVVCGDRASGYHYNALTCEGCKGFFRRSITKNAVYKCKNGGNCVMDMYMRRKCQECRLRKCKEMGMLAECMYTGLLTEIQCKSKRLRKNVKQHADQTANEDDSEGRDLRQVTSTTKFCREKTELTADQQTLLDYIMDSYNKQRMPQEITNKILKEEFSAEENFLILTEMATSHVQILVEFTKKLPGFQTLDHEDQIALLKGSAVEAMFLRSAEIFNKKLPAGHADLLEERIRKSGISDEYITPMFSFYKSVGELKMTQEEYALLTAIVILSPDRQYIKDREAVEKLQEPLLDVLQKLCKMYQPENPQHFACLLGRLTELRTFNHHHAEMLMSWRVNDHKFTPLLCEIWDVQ

[4] = Clearance in Sprague-Dawley rat at 5 mg/kg, iv measured up to 24 hrs by HPLC analysis; format: ADME, organism-based; settings: in vivo
[5] = AUClast in Sprague-Dawley rat at 80 mg/kg, po measured up to 24 hrs by HPLC analysis; format: ADME, organism-based; parameters: dose 80 mg/kg, time < 24 hrs, route po; settings: in vivo
Mus musculus [6] = assay: Antiinflammatory activity in CDAHFD-induced nonalcoholic steatohepatitis C57BL/6J mouse model assessed as reduction in IL-1beta gene expression at 80 mg/kg, po administered daily for 4 weeks; format: functional, organism-based
[7] = target: T1, Bile acid receptor (Mus musculus); assay: In vivo activation of FXR in […]-induced nonalcoholic steatohepatitis C57BL/6J mouse model assessed as improved glucose tolerance measured up to 120 mins by glucose tolerance test; format: functional
[8] = Toxicity in CDAHFD-induced nonalcoholic steatohepatitis C57BL/6J mouse model assessed as reduction in serum AST level at 80 mg/kg, po administered daily for 4 weeks; format: organism-based; settings: in vivo, 672 h
[9] = Toxicity in CDAHFD-induced nonalcoholic steatohepatitis C57BL/6J mouse model assessed as increase in liver wet weight at 80 mg/kg, po administered daily for 4 weeks […]; format: organism-based; settings: in vivo, 672 h
[10] = target: T1, Bile acid receptor (Mus musculus); assay: In vivo activation of FXR in CDAHFD-induced nonalcoholic steatohepatitis C57BL/6J mouse model assessed as induction of SHP gene expression at 80 mg/kg, po administered daily for 4 weeks; format: functional, organism-based
[11] = Stability in Sprague-Dawley rat plasma at 80 mg/kg, po measured after 5 hrs by RP-HPLC analysis; format: ADME, organism-based; settings: in vivo
[12] = Drug metabolism in Sprague-Dawley rat plasma assessed as (E)-3-(3-((2-Cyano-4'-dimethylaminobiphenyl-4-ylmethyl)-cyclohexanecarbonylamino)-5-fluorophenyl)acrylic Acid metabolite formation at 5 mg/kg, iv measured up to 20 to 60 mins by RP-HPLC analysis; format: ADME, organism-based; settings: in vivo, time 20-60 min
[13] = Toxicity in CDAHFD-induced nonalcoholic steatohepatitis C57BL/6J mouse model assessed as change in amount of food intake at 80 mg/kg, po administered daily for 4 weeks; format: organism-based; settings: in vivo, 672 h
[14] = Drug metabolism in Sprague-Dawley rat plasma assessed as retention time of unidentified major metabolite at 5 mg/kg, iv upto 1 hr by RP-HPLC analysis; format: ADME, organism-based; settings: in vivo
[15] = Oral bioavailability in Sprague-Dawley rat at 80 mg/kg measured up to 24 hrs by HPLC analysis; format: ADME, organism-based; settings: in vivo
[16] = target: T2, Bile acid receptor (Homo sapiens) (UniProt Q96RI1); assay: Partial agonist activity at FXR (unknown origin) expressed in CHO-K1 cells coexpressed with beta-galactosidase incubated for 3 to 16 hrs by PathHunter chemiluminescence based assay relative to GW4064; format: cell-based; settings: filed as partial agonist, time 3-16 hrs
T2 sequence (whole entry): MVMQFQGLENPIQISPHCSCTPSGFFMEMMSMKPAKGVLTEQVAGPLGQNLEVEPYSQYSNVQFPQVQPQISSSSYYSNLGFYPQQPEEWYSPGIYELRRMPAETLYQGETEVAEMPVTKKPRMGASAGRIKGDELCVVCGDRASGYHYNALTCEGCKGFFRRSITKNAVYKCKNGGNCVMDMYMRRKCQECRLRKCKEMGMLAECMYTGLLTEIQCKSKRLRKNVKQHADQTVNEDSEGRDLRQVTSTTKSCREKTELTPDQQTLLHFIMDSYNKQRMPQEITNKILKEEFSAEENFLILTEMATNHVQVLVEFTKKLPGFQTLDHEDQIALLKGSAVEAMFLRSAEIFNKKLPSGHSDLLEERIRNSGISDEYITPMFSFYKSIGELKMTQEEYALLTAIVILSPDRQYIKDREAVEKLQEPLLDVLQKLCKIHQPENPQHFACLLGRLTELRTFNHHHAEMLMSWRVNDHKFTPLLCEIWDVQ

[17] = Toxicity in CDAHFD-induced nonalcoholic steatohepatitis C57BL/6J mouse model assessed as change in body weight at 80 mg/kg, po administered daily for 4 weeks; format: organism-based; settings: in vivo, 672 h
[18] = Volume of distribution at steady state in Sprague-Dawley rat at 5 mg/kg, iv measured up to 24 hrs by HPLC analysis; format: ADME, organism-based; settings: in vivo, read-out: Vdss
[19] = target: T1, Bile acid receptor (Mus musculus); assay: In vivo activation of FXR in CDAHFD-induced nonalcoholic steatohepatitis C57BL/6J mouse model assessed as induction of OST-alpha gene expression at 80 mg/kg, po administered daily for 4 weeks; format: functional, organism-based
[20] = target: T1, Bile acid receptor (Mus musculus); assay: In vivo activation of FXR in CDAHFD-induced nonalcoholic steatohepatitis C57BL/6J mouse model assessed as induction of IBABP gene expression at 80 mg/kg, po administered daily for 4 weeks; format: functional, organism-based
Mus musculus [21] = assay: Antifibrotic activity in CDAHFD-induced nonalcoholic steatohepatitis C57BL/6J mouse model assessed as reduction in TIMP-1 gene expression at 80 mg/kg, po administered daily for 4 weeks; format: functional, organism-based
[22] = Half life in Sprague-Dawley rat at 5 mg/kg, iv measured up to 24 hrs by HPLC analysis; format: ADME, organism-based; settings: in vivo
[23] = target: T1, Bile acid receptor (Mus musculus); assay: In vivo activation of FXR in CDAHFD-induced nonalcoholic steatohepatitis C57BL/6J mouse model assessed as reduction in liver fibrosis at 80 mg/kg, po administered daily for 4 weeks by picrosirius red staining method; format: functional, organism-based
[24] = AUClast in Sprague-Dawley rat at 5 mg/kg, iv measured up to 24 hrs by HPLC analysis; format: ADME, organism-based; parameters: time < 24 hrs, dose 5 mg/kg, route iv; settings: in vivo, 24 h

Sequence of Peroxisome proliferator-activated receptor delta (Q03181 whole entry): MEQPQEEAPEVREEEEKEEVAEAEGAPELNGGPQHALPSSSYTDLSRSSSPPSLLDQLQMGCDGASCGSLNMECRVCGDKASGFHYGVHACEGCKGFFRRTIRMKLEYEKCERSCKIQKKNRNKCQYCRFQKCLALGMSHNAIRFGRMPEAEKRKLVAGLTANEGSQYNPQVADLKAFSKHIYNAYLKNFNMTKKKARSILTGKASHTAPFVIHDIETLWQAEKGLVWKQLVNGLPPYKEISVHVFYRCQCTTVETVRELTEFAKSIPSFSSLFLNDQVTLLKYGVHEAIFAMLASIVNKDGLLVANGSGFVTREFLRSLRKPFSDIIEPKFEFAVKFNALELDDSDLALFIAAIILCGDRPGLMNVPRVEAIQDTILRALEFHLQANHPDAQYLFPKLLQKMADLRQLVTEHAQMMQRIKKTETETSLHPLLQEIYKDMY

## CCCc1c(OCCCOc2ccc(OCC(=O)O)cc2)ccc(C(C)=O)c1O
[1]
  EC50: 6 nM

## COC(=O)/C=C/c1cc(F)cc(N(Cc2ccc(-c3ccc(N(C)C)cc3)c(C#N)c2)C(=O)C2CCCCC2)c1
Mus musculus [2]
  Activity: Active
[3]
  Activity: Active
[4]
  clearance: 93.3 mL/min/kg
[5]
  AUClast: 1500 ng·h/mL
Mus musculus [6]
  Activity: Active
[7]
  Activity: Active
[8]
  Activity: Non-Toxic
[9]
  Activity: Non-Toxic
[10]
  Activity: Active
[11]
  Stability: Unstable
[12]
  Drug metabolism: Metabolite_Detected
[13]
  Activity: Non-Toxic
[14]
  Retention_time: 5.25 min
[15]
  F: 4%
[16]
  Emax: 53%
[17]
  Activity: Non-Toxic
[18]
  Vd: 0.7 L/kg
[19]
  Activity: Active
[20]
  Activity: Active
Mus musculus [21]
  Activity: Active
[22]
  half-life: 4.8 min
[23]
  Activity: Active
[24]
  AUClast: 900 ng·h/mL
